Holding throughout (type): cell-based
In data set [1] the target is T1, PepT1 (Homo sapiens, UniProt P46059).
T1 construct: expressed in transfected cells
T1 sequence (P46059 1-708): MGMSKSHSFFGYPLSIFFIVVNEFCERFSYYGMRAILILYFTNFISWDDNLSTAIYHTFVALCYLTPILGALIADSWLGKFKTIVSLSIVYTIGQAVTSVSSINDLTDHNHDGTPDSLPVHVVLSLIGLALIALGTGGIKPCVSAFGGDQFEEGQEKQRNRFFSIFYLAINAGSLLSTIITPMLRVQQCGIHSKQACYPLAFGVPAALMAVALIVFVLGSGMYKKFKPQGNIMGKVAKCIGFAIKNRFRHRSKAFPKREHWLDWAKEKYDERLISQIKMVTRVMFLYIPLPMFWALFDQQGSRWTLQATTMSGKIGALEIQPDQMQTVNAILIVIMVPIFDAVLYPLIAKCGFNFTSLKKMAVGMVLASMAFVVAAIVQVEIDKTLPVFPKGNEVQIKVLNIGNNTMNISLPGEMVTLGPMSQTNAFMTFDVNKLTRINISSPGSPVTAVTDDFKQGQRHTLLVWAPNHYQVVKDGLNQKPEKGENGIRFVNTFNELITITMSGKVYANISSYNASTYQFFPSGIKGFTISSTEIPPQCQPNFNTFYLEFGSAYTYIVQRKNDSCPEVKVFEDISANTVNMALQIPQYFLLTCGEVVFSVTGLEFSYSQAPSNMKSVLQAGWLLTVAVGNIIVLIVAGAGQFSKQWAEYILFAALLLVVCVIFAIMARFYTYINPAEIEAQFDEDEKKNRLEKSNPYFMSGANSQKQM
In words: Inhibition of PepT1 uptake of known substrate Gly-Sar. Particulars: probe substrate Gly-Sar 50 μM. The method, then:
FIG. 2(d) is a line graph showing the concentration-inhibition curves for the inhibition of uptake of known substrate dipeptide Gly-Sar (50 μM) for PepT1. DMSO (0.5%) was the solvent control (SC) and the known inhibitor for the positive control (PC) was losartan (200 μM). Data were fit to either the Michaelis-Menten equation for uptake or the Hill equation for inhibition using the solvent control to define the top and the positive control inhibitor to define the bottom. Symbols represent the mean±SEM, n=3.
The known probe substrates used as positive controls are 3 μM chlorothiazide for OAT1, 2 μM estrone-3-sulfate for OAT3, 10 μM gabapentin for LAT1, 50 μM Gly-Sar for PepT1, 500 μM thiophene-2-glyoxylic acid for MCT1.
The IC50 value for the test item is determined by fitting the Hill equation in the following form:
where A % is the percent activity remaining (the mean cellular uptake observed in the solvent control sample set to 100% and the mean cellular uptake observed in the presence of the positive control inhibitor set to 0%), Top and Bottom are the upper and lower plateau of A %. [I] is the inhibitor concentration and IC50 is the inhibitor concentration where the remaining activity is at the midpoint between the Top and Bottom.

The next data set concerns the target T2, OAT1 (SLC22A6) (Homo sapiens, UniProt Q4U2R8).
T2 construct: host or cells: HEK-293
T2 sequence (Q4U2R8 1-563): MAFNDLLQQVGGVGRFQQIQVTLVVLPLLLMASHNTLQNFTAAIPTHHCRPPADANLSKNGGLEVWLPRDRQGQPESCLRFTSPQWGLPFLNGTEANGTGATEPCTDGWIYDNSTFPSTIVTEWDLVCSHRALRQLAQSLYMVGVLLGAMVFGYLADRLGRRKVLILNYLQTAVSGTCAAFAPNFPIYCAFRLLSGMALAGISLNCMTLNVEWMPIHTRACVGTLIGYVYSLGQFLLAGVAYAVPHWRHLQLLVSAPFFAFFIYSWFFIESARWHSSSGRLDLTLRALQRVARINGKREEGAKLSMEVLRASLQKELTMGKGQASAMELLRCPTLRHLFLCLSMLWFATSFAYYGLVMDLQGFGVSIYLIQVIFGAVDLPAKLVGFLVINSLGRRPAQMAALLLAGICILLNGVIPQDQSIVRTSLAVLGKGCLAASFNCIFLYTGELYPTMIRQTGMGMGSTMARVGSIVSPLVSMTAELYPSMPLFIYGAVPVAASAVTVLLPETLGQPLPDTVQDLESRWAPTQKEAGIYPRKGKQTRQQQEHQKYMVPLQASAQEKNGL
The data set can be described thus: Inhibition of OAT1 uptake of known substrate chlorothiazide. To be noted: probe substrate chlorothiazide 3 μM. The method, then:
(§1) DMSO (0.5%) was the solvent control (SC) and the known inhibitor diclofenac (100 μM) was the positive control (PC). Data were fit to either the Michalis-Menten equation for uptake or the Hill equation for inhibition using the solvent control to define the top and the positive control inhibitor to define the bottom. Symbols represent the mean±SEM, n=3.
(§2) Human OAT1 (SLC22A6) and OAT3 (SLC22A8) overexpressing HEK-293 cells and control cells without transfected transporter (Corning® TransportoCells™) are plated to 24-well plates and cellular uptake of 10 to 100 μg/mL of a Compound of the Disclosure is measured in the absence and presence of transporter inhibitors. Uptake of a Compound of the Disclosure into control cells is measured only without chemical inhibitors. […] Cells are grown in DMEM (Gibco 4196, high glucose, without sodium pyruvate) supplemented with MEM non-essential amino acids and 10% fetal bovine serum. Cells are re-fed with fresh medium after attachment (4-6 hours post-seeding). Cell are plated at a density of 4×10^5/well in 24-well plates coated with poly-D-lysine. Transporter assays are conducted in 400 μL of HBSS supplemented with 10 mM Hepes, pH 7.4 […]
(§3) The IC50 value for the test item is determined by fitting the Hill equation in the following form: […]

The target of data set [2] is T1, PepT1. The data set can be described thus: PepT1 transporter-mediated cellular uptake (substrate test). Particulars: uptake 3 min, 37° C. On the procedure:
DMSO (0.5%) was the solvent control (SC) and the known inhibitor for the positive control (PC) was losartan (200 μM). Data were fit to either the Michaelis-Menten equation for uptake or the Hill equation for inhibition using the solvent control to define the top and the positive control inhibitor to define the bottom. Symbols represent the mean±SEM, n=3.
Human OAT1 (SLC22A6) and OAT3 (SLC22A8) overexpressing HEK-293 cells and control cells without transfected transporter (Corning® TransportoCells™) are plated to 24-well plates and cellular uptake of 10 to 100 μg/mL of a Compound of the Disclosure is measured in the absence and presence of transporter inhibitors. Uptake of a Compound of the Disclosure into control cells is measured only without chemical inhibitors. […] Cells are grown in DMEM (Gibco 4196, high glucose, without sodium pyruvate) supplemented with MEM non-essential amino acids and 10% fetal bovine serum. Cells are re-fed with fresh medium after attachment (4-6 hours post-seeding). Cell are plated at a density of 4×10^5/well in 24-well plates coated with poly-D-lysine. Transporter assays are conducted in 400 μL of HBSS supplemented with 10 mM Hepes, pH 7.4
The known probe substrates used as positive controls are 3 μM chlorothiazide for OAT1, 2 μM estrone-3-sulfate for OAT3, 10 μM gabapentin for LAT1, 50 μM Gly-Sar for PepT1, 500 μM thiophene-2-glyoxylic acid for MCT1. […]

The next data set addresses T3, OAT3 (SLC22A8) (Homo sapiens, UniProt Q8TCC7).
T3 construct: host or cells: HEK-293
T3 sequence (Q8TCC7 1-542): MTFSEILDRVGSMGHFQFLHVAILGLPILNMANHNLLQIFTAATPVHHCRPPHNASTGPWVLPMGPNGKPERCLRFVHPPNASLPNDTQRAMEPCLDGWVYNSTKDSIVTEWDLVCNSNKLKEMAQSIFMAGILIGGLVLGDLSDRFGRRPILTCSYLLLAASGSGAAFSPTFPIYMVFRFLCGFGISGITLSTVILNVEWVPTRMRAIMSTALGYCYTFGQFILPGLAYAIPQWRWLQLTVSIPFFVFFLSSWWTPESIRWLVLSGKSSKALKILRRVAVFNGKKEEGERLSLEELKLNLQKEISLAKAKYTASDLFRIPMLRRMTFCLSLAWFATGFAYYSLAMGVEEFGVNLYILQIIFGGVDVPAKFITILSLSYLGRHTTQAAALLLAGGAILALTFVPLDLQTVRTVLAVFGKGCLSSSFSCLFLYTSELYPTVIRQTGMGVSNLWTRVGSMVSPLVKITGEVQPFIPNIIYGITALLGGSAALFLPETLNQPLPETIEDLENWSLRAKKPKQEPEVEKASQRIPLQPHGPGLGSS
In words: Inhibition of OAT3 uptake of known substrate estrone-3-sulfate. Particulars: probe substrate estrone-3-sulfate 2 μM. The method, then: as §1, §2, §3

pIC50: −log10 of the molar value.

One may read the pIC50 as the IC50 on a negative log10 scale, so that one unit is a factor of ten. A higher pIC50 goes with a small IC50.

For `CC(=O)N[C@@H](CC(C)C)C(=O)O` [N-acetyl-L-leucine], the pIC50 against PepT1 [1] is 3.13; at OAT1 (SLC22A6), 2.21; against OAT3 (SLC22A8) it was 3.15. The “substrate of PepT1 (uptake)” value at PepT1 [2] was “not a substrate”.
